Measurements published in article PMC3591457, “Biodistribution and Elimination Study of Fluorine-18 Labeled N^ε-Carboxymethyl-Lysine following Intragastric and Intravenous Administration” (PLoS ONE, 2013).

Experiments:
[1] = microPET imaging after intravenous administration; format: in vivo, ICR mice; settings: after intravenous injection
Protocol: After adjusting the animal board position, 0.15 mL of an ^18F-CML solution was administered intravenously via the tail vein. The solution of ^18F-CML was prepared just prior to the intravenous administration. The dose of ^18F-CML was adjusted to approximately 80 µCi per mouse (n = 4), and the pH of the solution was adjusted to 7.4. Here, the specific activity corresponded to 3 MBq/nmol. Dynamic PET images were acquired continuously for 2 hours.
(§1) Dynamic PET studies were performed using a dedicated microPET scanner for small animals. For imaging studies, the animals were under isoflurane anesthesia and then positioned and immobilized supine with their medial axis parallel to the axial axis of the scanner with the thorax and abdominal region (organs of interest: heart, liver, and kidneys) in the center of the field of view.
(§2) Approximately 5 min was needed to set the position of the animals after intragastric or intravenous administration of the drug solution containing ^18F-CML. Then, the emission data were acquired for 120 min. An attenuation map was created for each mouse by intravenously administering the residual ^18F-CML after acquisition of the emission data. The acquired data were sorted into dynamic sinograms. […] The quantitative analyses of the hepatic and renal distributions of ^18F-CML were performed using ASIPro installed in the PET system.

[2] = Biodistribution after intragastric administration; format: in vivo, ICR mice; settings: for Uptake in bladder, percentage of injected dose per whole tissue / Uptake in brain, percentage of injected dose per whole tissue / Uptake in heart, percentage of injected dose per whole tissue / Uptake in intestines, percentage of injected dose per whole tissue / Uptake in kidneys, percentage of injected dose per whole tissue / Uptake in liver, percentage of injected dose per whole tissue / Uptake in lungs, percentage of injected dose per whole tissue / Uptake in muscles, percentage of injected dose per whole tissue / Uptake in pancreas, percentage of injected dose per whole tissue / Uptake in stomach, percentage of injected dose per whole tissue: intragastric administration, n=3, mean ± SD
Protocol: The biodistribution of ^18F-CML was studied in eighteen young male ICR mice with a weight range of 18–20 g. Nine mice were used for intravenous administration and the other nine mice were used for intragastric administration.
For intravenous administration, ^18F-CML was injected into a lateral tail vein of the animals under light ether anesthesia. The injection volume (2–3 MBq; radiochemical purity 96%) was 0.1 mL. For intragastric administration, 1.5 MBq of ^18F-labeled CML was given via gastrointestinal tract tract.
The mice were sacrificed at 5, 60, and 120 min after administration of ^18F-CML (three mice at each time point). The animals were sacrificed by heart puncture under ether anaesthesia. The tissues and organs of interest were isolated and counted in a well-type γ counter. Additionally, 200 µL of blood was taken from the carotid artery. The distributions of ^18F-CML in different tissues and organs were calculated and expressed as the percent uptake of the injection dose per whole tissue (% ID).

[3] = microPET imaging after intragastric administration; format: in vivo, ICR mice
Protocol: Male ICR mice weighing 18–20 g (7–8 wks old, n = 4) were kept fasting for 14 h […] and had free access to water before the experiments that followed. For the experiment, the mice were anesthetized and unconsciousness was maintained with a mixture of 1.5% isoflurane and nitrous oxide∶oxygen (7∶3). Approximately 3.0 MBq (80 µCi) of ^18F-labeled CML was administered via the gastrointestinal route. Five-minute static PET images were acquired at 15, 30, 60, 120 and 150 min post-injection.
as §1
as §2, with “data.” for “data. The acquired data were sorted into dynamic sinograms.”

[4] = system: HepG2 cells; assay: Cell uptake of ^18F-CML and native CML in HepG2 cells; format: cell-based; settings: n=3, P<0.01, blocking with non-radioactive CML
Protocol: To compare the different bioactivities of CML and ^18F-CML, two cell lines were evaluated for their capacity to take up native CML and the fluorobenzoylated derivative ^18F-CML. RAW264.7 macrophages and HepG2 liver cells were cultured in DMEM/LOWGLUCOSE, supplemented with 10% fetal bovine serum (FBS), 4.0 mmol/L L-glutamine, 110 mg/L sodium pyruvate, 100 U/mL penicillin, and 100 mg/L streptomycin at 37°C and 5% CO2.
For ^18F-CML cell uptake studies, RAW264.7 cells and HepG2 cells were seeded into 24-well plates at a density of 4×10^5 cells per well. Radio-tracer ^18F-CML (0.5 µCi/well, 3 µmol/mL) was incubated in a 37°C water bath for 15, 30, 60, and 120 min. At each time point the cells were washed 3 times with phosphate-buffered saline (PBS). The supernatant, washing-up liquid (unbound activity) and the pellet (cell-bound activity) were transferred to new tubes. Triplicates of the counting tubes containing supernatant and cell pellet were counted individually using a gamma counter for 1 min. For the blocking experiment, the uptake was carried out in the presence of the non-radioactive CML(10 µmol/mL) and processed similarly as described above. The uptake (%) of radio-tracer into the cell was determined using a gamma counter according to the following equation: [drawing 1]
For CML cell uptake ratio studies, unaltered CML (10 µmol/mL) was added to RAW264.7 and HepG2 cell pellets individually. The total proteins of each cell line were initially extracted from the lysates of 4×10^5 cells. […] The supernatants were purified and detected usingby the method described by Drusch et al., which uses an RP-HPLC method with an ortho-phthaldialdehyde (OPA)-derivatisation and fluorescence detection suited for automation. The HPLC analysis method used a 250 mm×4.6 mm C18 column (GROM-SIL 100 ODS-0 AB, Herrenberg, Germany) and detected the fluorescence excitation at 340 nm and emission at 455 nm. The peak identification of CML was confirmed by the retention time and standard addition and was quantified using an external standard. The amount of CML was calculated and expressed as a percentage.

In the case of O=C(O)CNCCCCC(NC(=O)c1ccc([18F])cc1)C(=O)O (stereo not shown) [^18F-CML], the “Duration of continued accumulation of radioactivity in the kidneys (PET)” value [1] is reported as “approximately 60 min”, the “Uptake in bladder, percentage of injected dose per whole tissue” value ([2]; 5 min) is reported as 5.20±1.68 %ID and the “Uptake in brain, percentage of injected dose per whole tissue” value ([2]; 5 min) is reported as 1.04±0.02 %ID. For the same compound, the “Uptake in heart, percentage of injected dose per whole tissue” value ([2]; 5 min) was 1.05±0.25 %ID, the “Uptake in intestines, percentage of injected dose per whole tissue” value ([2]; 5 min) was 9.91±1.36 %ID and the “Uptake in kidneys, percentage of injected dose per whole tissue” value ([2]; 5 min) was 2.20±0.95 %ID. The “Uptake in liver, percentage of injected dose per whole tissue” value ([2]; 5 min) was 1.17±0.45 %ID, the “Uptake in lungs, percentage of injected dose per whole tissue” value ([2]; 5 min) was 0.35±0.19 %ID and the “Uptake in muscles, percentage of injected dose per whole tissue” value ([2]; 5 min) was 1.76±0.53 %ID. The “Uptake in pancreas, percentage of injected dose per whole tissue” value ([2]; 5 min) was 0.2±0.01 %ID, the “Uptake in stomach, percentage of injected dose per whole tissue” value ([2]; 5 min) was 76.85±7.01 %ID and the “Uptake in bladder, percentage of injected dose per whole tissue” value ([2]; 60 min) was 12.21±1.62 %ID. The “Uptake in brain, percentage of injected dose per whole tissue” value ([2]; 60 min) was 0.31±0.03 %ID, the “Uptake in heart, percentage of injected dose per whole tissue” value ([2]; 60 min) was 0.75±0.52 %ID and the “Uptake in intestines, percentage of injected dose per whole tissue” value ([2]; 60 min) was 52.29±8.71 %ID. For the same compound, the “Uptake in kidneys, percentage of injected dose per whole tissue” value ([2]; 60 min) was 3.31±1.91 %ID, the “Uptake in liver, percentage of injected dose per whole tissue” value ([2]; 60 min) was 1.0±0.12 %ID and the “Uptake in lungs, percentage of injected dose per whole tissue” value ([2]; 60 min) was 0.51±0.11 %ID. For the same compound, the “Uptake in muscles, percentage of injected dose per whole tissue” value ([2]; 60 min) was 2.16±1.82 %ID, the “Uptake in pancreas, percentage of injected dose per whole tissue” value ([2]; 60 min) was 0.32±0.02 %ID and the “Uptake in stomach, percentage of injected dose per whole tissue” value ([2]; 60 min) was 29.73±3.91 %ID. The “Uptake in bladder, percentage of injected dose per whole tissue” value ([2]; 120 min) was 29.59±3.7 %ID, the “Uptake in brain, percentage of injected dose per whole tissue” value ([2]; 120 min) was 0.02±0.01 %ID and the “Uptake in heart, percentage of injected dose per whole tissue” value ([2]; 120 min) was 0.29±0.59 %ID. For the same compound, the “Uptake in intestines, percentage of injected dose per whole tissue” value ([2]; 120 min) was 48.32±5.2 %ID, the “Uptake in kidneys, percentage of injected dose per whole tissue” value ([2]; 120 min) was 2.1±0.29 %ID and the “Uptake in liver, percentage of injected dose per whole tissue” value ([2]; 120 min) was 0.29±0.05 %ID. For the same compound, the “Uptake in lungs, percentage of injected dose per whole tissue” value ([2]; 120 min) was 0.23±0.05 %ID, the “Uptake in muscles, percentage of injected dose per whole tissue” value ([2]; 120 min) was 1.11±1.78 %ID and the “Uptake in pancreas, percentage of injected dose per whole tissue” value ([2]; 120 min) was 0.05±0.00 %ID. The “Uptake in stomach, percentage of injected dose per whole tissue” value ([2]; 120 min) was 17.87±2.1 %ID, the “Accumulation of radioactivity in the gastrointestinal tract” value ([2]; intragastric, 60 min) was “approximately 82 % ID” and the “Fraction excreted in the urine” value ([2]; intragastric, 60 min) was 12 % ID. The Blood uptake ([2]; intragastric, 120 min, percentage of wet tissue) was 0.95±0.09 % ID, the “Localization of radioactivity (PET)” value ([3]; first 15 min after administration via stomach tube) was “completely localized in the stomach” and the “Resorption of radioactivity from the small intestine (PET)” value ([3]; within 2 h after application via stomach tube) was “not observed”. The “Uptake of radioactivity in untreated cells relative to unlabelled CML-treated (blocked) cells” value [4] was 1.6 fold.
